In patent US10611750B2, “Tetrahydroquinoline compositions as bet bromodomain inhibitors” (FORMA Therapeutics, Inc., priority 2013, dated 2020):

Columns and labels:
[1] = target: T1, BRD4 Bromodomain 2 (BRD4 BD2) (Homo sapiens, UniProt O60885); experiment: AlphaScreen binding assay, BRD4 BD2; settings: His-tagged BRD4 BD2 100 nM, biotinylated H4 (1-21) K5/8/12/16 tetra-acetylated peptide 100 nM, compounds listed under IC50 range headings
T1 construct: 333-460 were cloned, expressed, and purified to homogeneity
Outline: (§1)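 An AlphaScreen competition format was used with His-BRD4 BD1 or BD2 and biotin-H4 K5/8/12/16-acetyl peptide, each at matched final levels of 50 nM (BD1) or 100 nM (BD2). Incubation in HEPES/NaCl buffer with 0.1% BSA and 0.01% Triton X-100 ran ≥1 h before IC50 determination.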

[2] = tested on: acute myelocytic leukemia (AML) cell line MV4-11; experiment: Oncology cell growth assay (3-day proliferation, CellTiter-Glo); assay type: cell-based; settings: Homo sapiens, MV4-11, 72 h, MV4-11 cells, 3000 cells/well, compounds listed under IC50 range headings, read-out: MV411 IC50 (gIC50, inhibition of proliferation)
Outline: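 A 3-day proliferation test used MV4-11 cells seeded at 3000 per well with eight compound concentrations (10 μM top, 3-fold dilution) at 37° C in 5% CO2. CellTiter-Glo luminescence defined viable cell signal. A four-parameter logistic curve against DMSO and background wells gave the gIC50.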

[3] = target: T2, BRD4 Bromodomain 1 (BRD4 BD1) (Homo sapiens, UniProt O60885); experiment: AlphaScreen binding assay, BRD4 BD1; settings: His-tagged BRD4 BD1 50 nM, biotinylated H4 (1-21) K5/8/12/16 tetra-acetylated peptide 50 nM, compounds listed under IC50 range headings
T2 construct: 44-168 and BRD4 BD2
Outline: as §1

Structure (SMILES) | IC50 [1] | IC50 [2] | IC50 [3]
CC(=O)N1c2ccc(-c3cnn(C4CC4)c3)c(OC(C)C)c2CC[C@@H]1C [I-388] | 50 to 500 nM | 500 to 1000 nM | 100 to 1000 nM
CC(=O)N1c2ccc(-c3cnn(C4CC4)c3)c(OCC3CCC3)c2CC[C@@H]1C [I-392] | 50 to 500 nM | < 500 nM | 100 to 1000 nM
CC(=O)N1c2ccc(-c3cnn(C4CC4)c3)c(OCC3(C)COC3)c2CC[C@@H]1C [I-395] | 50 to 500 nM | 500 to 1000 nM | 100 to 1000 nM
COCCOc1c(-c2cnn(C3CC3)c2)ccc2c1CC[C@H](C)N2C(C)=O [I-398] | 50 to 500 nM | 500 to 1000 nM | 100 to 1000 nM
CC(=O)N1c2ccc(-c3cnn(C4CC4)c3)c(OCC3CCOCC3)c2CC[C@@H]1C [I-400] | 50 to 500 nM | < 500 nM | 100 to 1000 nM
CC(=O)N1c2ccc(-c3cnn(C4CC4)c3)c(OCC3CCCCC3)c2CC[C@@H]1C [I-402] | 50 to 500 nM | 500 to 1000 nM | 100 to 1000 nM
CC(=O)N1c2ccc(-c3cnn(CCO)c3)c(OC3CCC3)c2CC[C@@H]1C [I-411] | < 50 nM | < 500 nM | 100 to 1000 nM
CC(=O)N1c2ccc(-c3cnn(C4CCNCC4)c3)c(OC3CCC3)c2CC[C@@H]1C [I-412] | < 50 nM | < 500 nM | 100 to 1000 nM
CC(=O)N1c2ccc(-c3cnn(CCS(C)(=O)=O)c3)c(OCC3CCOCC3)c2CC[C@@H]1C [I-413] | 50 to 500 nM | < 500 nM | 100 to 1000 nM
CC(=O)N1c2ccc(-c3cnn(CCO)c3)c(OCC3CCOCC3)c2CC[C@@H]1C [I-415] | < 50 nM | < 500 nM | < 100 nM
CC(=O)N1c2ccc(-c3cnn(C4CCNCC4)c3)c(OCC3CCOCC3)c2CC[C@@H]1C [I-416] | < 50 nM | < 500 nM | < 100 nM
CC(=O)N1c2ccc(-c3cnn(CCS(C)(=O)=O)c3)c(OCC(C)C)c2CC[C@@H]1C [I-420] | < 50 nM | < 500 nM | 100 to 1000 nM
CC(=O)N1c2ccc(-c3cnn(CCO)c3)c(OCC(C)C)c2CC[C@@H]1C [I-422] | < 50 nM | < 500 nM | 100 to 1000 nM
CC(=O)N1c2ccc(-c3cnn(C4CCNCC4)c3)c(OCC(C)C)c2CC[C@@H]1C [I-423] | < 50 nM | < 500 nM | < 100 nM
CC(=O)N1c2ccc(-c3cnn(CCS(C)(=O)=O)c3)c(OCC3CCCC3)c2CC[C@@H]1C [I-424] | < 50 nM | < 500 nM | 100 to 1000 nM
CC(=O)N1c2ccc(-c3cnn(CC(C)(C)O)c3)c(OCC3CCCC3)c2CC[C@@H]1C [I-425] | 50 to 500 nM | < 500 nM | 100 to 1000 nM
CC(=O)N1c2ccc(-c3cnn(CCO)c3)c(OCC3CCCC3)c2CC[C@@H]1C [I-426] | < 50 nM | < 500 nM | < 100 nM
CC(=O)N1c2ccc(-c3cnn(C4CCNCC4)c3)c(OCC3CCCC3)c2CC[C@@H]1C [I-427] | < 50 nM | < 500 nM | < 100 nM

Now from value to compound:

IC50 [1] | IC50 [2] | IC50 [3] | Structure (SMILES)
< 50 nM | < 500 nM | 100 to 1000 nM | CC(=O)N1c2ccc(-c3cnn(C4CC4)c3)c(OC3CCC3)c2CC[C@@H]1C [I-389]
< 50 nM | < 500 nM | 100 to 1000 nM | CC(=O)N1c2ccc(-c3cnn(C4CC4)c3)c(OCC3CC3)c2CC[C@@H]1C [I-390]
< 50 nM | < 500 nM | 100 to 1000 nM | CC(=O)N1c2ccc(-c3cnn(C4CC4)c3)c(OC3CCCC3)c2CC[C@@H]1C [I-396]
< 50 nM | < 500 nM | 100 to 1000 nM | CC(=O)N1c2ccc(-c3cnn(C4CC4)c3)c(OCC(=O)N(C)C)c2CC[C@@H]1C [I-401]
< 50 nM | < 500 nM | 100 to 1000 nM | CCCOc1c(-c2cnn(CCS(C)(=O)=O)c2)ccc2c1CC[C@H](C)N2C(C)=O [I-407]
< 50 nM | < 500 nM | 100 to 1000 nM | CCCOc1c(-c2cnn(CC(C)(C)O)c2)ccc2c1CC[C@H](C)N2C(C)=O [I-408]
< 50 nM | < 500 nM | 100 to 1000 nM | CC(=O)N1c2ccc(-c3cnn(CCS(C)(=O)=O)c3)c(OC3CCC3)c2CC[C@@H]1C [I-409]
< 50 nM | < 500 nM | 1000 to 10000 nM | CC(=O)N1c2ccc(-c3cnn(CC(C)(C)O)c3)c(OC3CCC3)c2CC[C@@H]1C [I-410]
